In patent US20220289708A1, “SUBSTITUTED N-PHENYL URACILS, SALTS THEREOF AND THEIR USE AS HERBICIDAL AGENTS” (Bayer Aktiengesellschaft, priority 2019, published 2022):

What was measured:
Test in all cases: Post-emergence herbicidal action
Type in all cases: in vivo
Pharbitis purpurea = conditions: application rate 20 g/ha, rated visually after about 3 weeks vs untreated controls
Experimental: (§1) a. Post-Emergence Herbicidal Action and Crop Plant Compatibility Seeds of monocotyledonous and dicotyledonous weeds and crop plants were placed in sandy loam in plastic or wood-fiber pots, covered with soil and cultivated in a greenhouse under controlled growth conditions. 2 to 3 weeks after sowing, the test plants were treated at the one-leaf stage. The compounds of the invention, formulated in the form of wettable powders (WP) or as emulsion concentrates (EC), were then sprayed onto the green parts of the plants as aqueous suspension or emulsion with addition of 0.5% additive at a water application rate of 600 l/ha (converted). After the test plants had been kept in the greenhouse under optimum growth conditions for about 3 weeks, the activity of the preparations was rated visually in comparison to untreated controls. For example, 100% activity=the plants have died, 0% activity=like control plants. Tables A1 to A15 below show the effects of selected compounds of the general formula (I) according to Tables I.1 to I.36 on various harmful plants and at an application rate corresponding to 20 g/ha and less, which were obtained by the experimental procedure mentioned above.

Setaria viridis = conditions: application rate 20 g/ha, rated visually after about 3 weeks vs untreated controls
Experimental: as §1

Alopecurus myosuroides = conditions: application rate 20 g/ha, rated visually after about 3 weeks vs untreated controls
Experimental: as §1

Amaranthus retroflexus = conditions: application rate 20 g/ha, rated visually after about 3 weeks vs untreated controls
Experimental: as §1

Digitaria sanguinalis = conditions: application rate 20 g/ha, rated visually after about 3 weeks vs untreated controls
Experimental: as §1

Veronica persica = conditions: application rate 20 g/ha
Experimental: as §1

Polygonum convolvulus = conditions: application rate 20 g/ha
Experimental: as §1

Lolium rigidum = conditions: application rate 20 g/ha, rated visually after about 3 weeks vs untreated controls
Experimental: as §1

Echinochloa crus-galli = conditions: application rate 20 g/ha, rated visually after about 3 weeks vs untreated controls
Experimental: as §1

Viola tricolor = conditions: application rate 20 g/ha
Experimental: as §1

Matricaria inodora = conditions: application rate 20 g/ha, rated visually after about 3 weeks vs untreated controls
Experimental: as §1

Abutilon theophrasti = conditions: application rate 20 g/ha, rated visually after about 3 weeks vs untreated controls
Experimental: as §1

Avena fatua = conditions: application rate 20 g/ha, rated visually after about 3 weeks vs untreated controls
Experimental: as §1

| SMILES | Pharbitis purpurea (efficacy in %) (Pharbitis purpurea) | Setaria viridis (efficacy in %) (Setaria viridis) | Alopecurus myosuroides (efficacy in %) (Alopecurus myosuroides) | Amaranthus retroflexus (efficacy in %) (Amaranthus retroflexus) | Digitaria sanguinalis (efficacy in %) (Digitaria sanguinalis) | Veronica persica (efficacy in %) (Veronica persica) | Polygonum convolvulus (efficacy in %) (Polygonum convolvulus) | Lolium rigidum (efficacy in %) (Lolium rigidum) | Echinochloa crus-galli (efficacy in %) (Echinochloa crus-galli) | Viola tricolor (efficacy in %) (Viola tricolor) | Matricaria inodora (efficacy in %) (Matricaria inodora) | Abutilon theophrasti (efficacy in %) (Abutilon theophrasti) | Avena fatua (efficacy in %) (Avena fatua) |
| --- | --- | --- | --- | --- | --- | --- | --- | --- | --- | --- | --- | --- | --- |
| COCCOCCOC(=O)COc1ncccc1Oc1cc(-n2c(=O)cc(C(F)(F)F)n(C)c2=O)c(F)cc1Br [I.16-23] | 100% | 100% | 100% | 100% | 100% | 100% | 100% | 100% | 100% | 100% | 100% | 100% | 100% |
| COCCOC(=O)COc1ncc(F)cc1Oc1cc(-n2c(=O)cc(C(F)(F)F)n(C)c2=O)c(F)cc1Cl [I.36-1] | 100% | 100% | 100% | 100% | 100% | 100% | 100% | 90% | 100% | 100% | 100% | 100% | 100% |
| Cn1c(C(F)(F)F)cc(=O)n(-c2cc(Oc3cccnc3OCC(=O)OCC3OCCO3)c(Br)cc2F)c1=O [I.16-424] | 100% | 100% | 100% | 100% | 100% | 100% | 100% | 80% | 100% | 100% | 100% | 100% | 90% |
| Cc1nn(C)cc1COC(=O)COc1ncccc1Oc1cc(-n2c(=O)cc(C(F)(F)F)n(C)c2=O)c(F)cc1Cl [I.15-366] | 100% | 100% | 100% | 100% | 100% | 100% |  | 90% | 100% | 100% | 100% | 100% | 90% |
| CCn1cc(COC(=O)COc2ncccc2Oc2cc(-n3c(=O)cc(C(F)(F)F)n(C)c3=O)c(F)cc2Cl)c(C)n1 [I.15-368] | 100% | 100% | 100% | 100% | 100% | 100% |  | 90% | 100% | 100% | 100% | 100% | 100% |
| Cn1c(C(F)(F)F)cc(=O)n(-c2cc(Oc3cccnc3OCC(=O)OCC#N)c(Br)cc2F)c1=O [I.16-176] | 100% | 100% | 100% | 100% | 100% | 100% | 90% | 80% | 100% | 100% | 100% | 100% | 90% |
| COCCOC(=O)COc1ncccc1Oc1cc(-n2c(=O)cc(C(F)(F)F)n(C)c2=O)c(F)cc1Br [I.16-1] | 100% | 100% | 100% | 100% | 100% | 100% | 100% | 90% | 100% | 100% | 100% | 100% | 90% |
| COCCOCCOC(=O)COc1ncccc1Oc1cc(-n2c(=O)cc(C(F)(F)F)n(C)c2=O)c(F)cc1C#N [I.35-23] | 100% | 100% | 100% | 100% | 100% | 100% |  |  | 100% | 100% | 100% | 100% | 90% |
| COCCOC(=O)COc1ncccc1Oc1cc(-n2c(=O)cc(C(F)(F)F)n(C)c2=O)c(F)cc1C#N [I.35-1] | 100% | 100% | 100% | 100% | 100% | 100% | 100% | 80% | 100% | 100% | 100% | 100% | 100% |
| CCOC(COC(=O)COc1ncccc1Oc1cc(-n2c(=O)cc(C(F)(F)F)n(C)c2=O)c(F)cc1Cl)OCC [I.15-422] | 100% | 100% | 100% | 100% | 100% | 100% | 100% | 100% | 100% | 100% | 100% | 100% | 80% |
| CCOCCOC(=O)COc1ncccc1Oc1cc(-n2c(=O)cc(C(F)(F)F)n(C)c2=O)c(F)cc1Br [I.16-2] | 100% | 100% | 100% | 100% | 100% | 100% | 100% | 100% | 100% | 100% | 100% | 100% | 100% |
| Cn1c(C(F)(F)F)cc(=O)n(-c2cc(Oc3cc(F)cnc3OCC(=O)OCc3ccccn3)c(Cl)cc2F)c1=O [I.36-286] | 100% | 100% | 100% | 100% | 100% | 100% | 100% | 80% | 100% | 100% | 90% | 100% | 80% |
| COCCOCCOC(=O)COc1ncc(F)cc1Oc1cc(-n2c(=O)cc(C(F)(F)F)n(C)c2=O)c(F)cc1Cl [I.36-23] | 100% | 100% | 100% | 100% | 100% | 100% | 90% | 90% | 100% | 100% | 100% | 100% |  |
| Cc1c(COC(=O)COc2ncccc2Oc2cc(-n3c(=O)cc(C(F)(F)F)n(C)c3=O)c(F)cc2Cl)cnn1C [I.15-367] | 100% | 100% | 100% | 100% | 100% | 100% |  | 80% | 100% | 100% | 100% | 100% | 90% |
